Data published in article PMC4269305, “The impact of P-gp functionality on non-steady state relationships between CSF and brain extracellular fluid” (Journal of Pharmacokinetics and Pharmacodynamics, 2013).

What was measured:
P-gp = system: P-gp; parameters: method as in PMID 11212278; conditions: cited from earlier work
[1] = parameters: method as in PMID 18632828, PMID 21199574; conditions: 15 mg/kg tariquidar; up to 3 h after administration; cited from earlier work
pKa and ionization = format: physicochemical
Text: Therefore, based on our data, it appears that quinidine is also transported by other transporters at the BBB and BCSFB, in the direction of the brain. However, there is no direct information in literature to support this. […] The question remains how this relates to the in vivo situation, like ours. […] OCTs have been localized both at the BBB [66], as well as at the BCSFB [67].

[2] = Plasma protein binding by Centrifree ultrafiltration; format: in vitro ADME; conditions: male, Wistar WU, rat, plasma (from dosed rats and from spiked blank blood); linear; not affected by co-administration of tariquidar
Method: […]. […] All blood samples were temporarily stored in heparin (10 IU) coated Eppendorf cups. […]. The spiked blood samples were then incubated in a shaking water bath at 37 °C for 30 min.
Plasma protein binding was determined with Centrifree® ultrafiltration devices (Millipore BV, Etten-Leur, the Netherlands). All procedures were performed according to the user’s manual. The ultrafiltrate was diluted ten times with saline before the analysis.

Na^+-K^+-ATPase = conditions: cited from earlier work

| % ionized (pKa and ionization; pH 7.3) [%] | % ionized (pKa and ionization; pH 7.4) [%] | fraction unbound at 30 min [2] | SMILES | half-maximum inhibition constant (IC50) for P-gp (P-gp) | plasma and brain concentrations relative to the IC50 value (fold higher) [1] | reported IC50 for inhibition of Na+-K+-ATPase activity (Na^+-K^+-ATPase) |
| --- | --- | --- | --- | --- | --- | --- |
|  |  |  | COc1cc2c(cc1OC)CN(CCc1ccc(NC(=O)c3cc(OC)c(OC)cc3NC(=O)c3cnc4ccccc4c3)cc1)CC2 [tariquidar, Tariquidar] | approximately 25 ng/ml | over 50 -fold |  |
| 80 | 76 | 0.135 | C=C[C@H]1C[N@@]2CC[C@H]1C[C@@H]2[C@@H](O)c1ccnc2ccc(OC)cc12 [quinidine, Quinidine] |  |  | ~ 30 μg/ml |
